According to patent publication US20240173435A1, “GENE DELIVERY FOR PREVENTION AND TREATMENT OF BALDNESS” (NEW JERSEY INSTITUTE OF TECHNOLOGY, priority 2022, published 2024):

Key:
[1] = Ionizable cationic lipid library screening, in vitro delivery of luciferase mRNA (mLuc); format: cell-based; conditions: 18*8 library, lipid:DOPE:cholesterol:DMG-PEG 50:10:38.5:1.5
From the text: An ionizable cationic lipid is generally composed of three parts: (1) hydrophilic headgroups containing one or multiple ionizable amines for condensing negatively charged mRNA; (2) hydrophobic hydrocarbon chains capable of promoting self-assembly and phospholipid membrane fusion; (3) degradable ester linkers connecting the headgroups with hydrocarbon chains to potentially lower systemic cytotoxicity (FIG. 8b). A new library of ionizable cationic lipids is designed, where the ionizable amine headgroups originated from different amino alcohols and the hydrocarbon lipid chains were derived from commercially available lipid acids. Through CALB enzyme-assisted reaction, the hydroxyl groups were reacted with carboxylic acids via one-step high-efficiency esterification (FIG. 8a) and an 18*8 library of lipid-like materials was synthesized by varying amino alcohols and lipid acids (ACS Nano, 16 (11) 18936-18950). Preliminarily, these lipid-like materials with DOPE, cholesterol, and DMG-PEG were fabricated at a molar ratio of 50:10:38.5:1.5, which was the most widely used formulation to form LNPs and delivered luciferase encoded mRNA (mLuc) in vitro to generate a luciferase expression heat map of lipid-like materials.

Androgen Receptor gene = experiment: Knockout percentage by Sanger sequencing and ICE analysis of GFP-positive sorted cells; format: cell-based, human; conditions: GFP-positive sorted HEK 293T cells, ICE analysis, n=5
Experimental: Cas9 mRNA was purchased from Tri-Link Biotechnologies. Guide RNAs, which target the 1st coding exon in both human and mouse AR genes, were designed so that any frameshift mutation would result in early termination of translation. All gRNAs were obtained from Synthego with “end-modified” synthesis where the first and last three bases of these gRNA were synthesized using 2′-O-Methyl-nucleosides and joined via 3′ phosphorothioate bonds.
The in vitro transfection efficacy was evaluated in the HEK 293 cell line by delivering plasmid PX458 integrated with GFP, Cas9 and gRNA sequence, utilizing nanoparticles. Briefly, 1×10^5 HEK 293 cells were seeded into each well of 24-well plate with 0.5 mL complete culture medium and incubated at 37° C. overnight to allow cell attachment. Then the LNPs were seeded at 24 h. The transfected GFP positive cells were observed under All-in-One Fluorescence Microscope (BZ-X710, Keyence, Japan) at predetermined time points with brightfield, fluorescent and merged channels using 10×PanFluor lens (Nikon, Japan). […] The cell pellets were resuspended in 0.5 mL PBS for flow cytometric analysis using a BD LSR II flow cytometer (BD Biosciences, San Jose, CA) and the data were analyzed using FACSDiva software (BD Biosciences, San Jose, CA). […]

Row | luciferase expression rank in lipid library screen [1] | Compound | knockout (percentage of transfected cells showing insertion or deletion) (Androgen Receptor gene)
1 | top-performing | CCCCC/C=C/C/C=C/CCCCCCCC(=O)OCCN1CCN(CCOC(=O)CCCCCCC/C=C/C/C=C/CCCCC)CC1 [AA3-DLin] | 
2 |  | GAGCGTGCGCGAAGCGATCC (guide GAGCGUGCGCGAAGCGAUCC; listed as RNA, chemistry not fully specified) [sgRNA2, PAM AGG, strand +] | ~51%
3 |  | TGATCCAGAACCCGGGCCCC (guide UGAUCCAGAACCCGGGCCCC; listed as RNA, chemistry not fully specified) [sgRNA1, PAM AGG, strand +] | ~76%
